PMC11589570, “Critical assessment of LC3/GABARAP ligands used for degrader development and ligandability of LC3/GABARAP binding pockets” (Nature Communications, 2024)
Entries after “also recorded” stand apart in the source; their conditions may differ. Where two headings read alike, the source gives them in different places.

Biological target: GABARAPL2 (Homo sapiens, UniProt P60520)
Details: for CSP: GABARAPL2:ligand molar ratio 1:2; for 3D Mapping code: molar ratio 1:2

Chain of GABARAPL2 (P60520 whole entry): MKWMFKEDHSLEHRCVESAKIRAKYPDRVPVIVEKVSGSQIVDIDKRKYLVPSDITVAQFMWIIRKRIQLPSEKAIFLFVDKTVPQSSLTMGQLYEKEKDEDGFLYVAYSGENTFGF

With `O=C1Nc2ccc(I)cc2C1=Cc1cc(Br)c(O)c(Br)c1` [compound 4] the “interaction in 2D NMR titration” value (GABARAPL2, listed as 10O5) was “only 10O5 (4) was able to interact with GABARAPL2; also recorded: prominent CSP”, the “CSP induced, K48 HN resonance” value (Molar ratio 10O5:GABARAPL2 0.5) was 0.08111 and the “CSP induced, L50 HN resonance” value (Molar ratio 10O5:GABARAPL2 0.5) was 0.0416. For the same molecule, the “CSP induced, R28 HN resonance” value (Molar ratio 10O5:GABARAPL2 0.5) was 0.0281, the “CSP induced, V16 HN resonance” value (Molar ratio 10O5:GABARAPL2 0.5) was 0.00761 and the “CSP induced, V31 HN resonance” value (Molar ratio 10O5:GABARAPL2 0.5) was 0.04746. For the same molecule, the “CSP induced, Y109 HN resonance” value (Molar ratio 10O5:GABARAPL2 0.5) was 0.01545, the “CSP induced, K48 HN resonance” value (Molar ratio 10O5:GABARAPL2 1) was 0.1338 and the “CSP induced, L50 HN resonance” value (Molar ratio 10O5:GABARAPL2 1) was 0.06831. For the same molecule, the “CSP induced, R28 HN resonance” value (Molar ratio 10O5:GABARAPL2 1) was 0.04204, the “CSP induced, V16 HN resonance” value (Molar ratio 10O5:GABARAPL2 1) was 0.03636 and the “CSP induced, V31 HN resonance” value (Molar ratio 10O5:GABARAPL2 1) was 0.08123. The “CSP induced, Y109 HN resonance” value (Molar ratio 10O5:GABARAPL2 1) was 0.03416, the “CSP induced, K48 HN resonance” value (Molar ratio 10O5:GABARAPL2 2) was 0.1662 and the “CSP induced, L50 HN resonance” value (Molar ratio 10O5:GABARAPL2 2) was 0.09155. For the same molecule, the “CSP induced, R28 HN resonance” value (Molar ratio 10O5:GABARAPL2 2) was 0.06538, the “CSP induced, V16 HN resonance” value (Molar ratio 10O5:GABARAPL2 2) was 0.05012 and the “CSP induced, V31 HN resonance” value (Molar ratio 10O5:GABARAPL2 2) was 0.1265. For the same molecule, the “CSP induced, Y109 HN resonance” value (Molar ratio 10O5:GABARAPL2 2) was 0.04477, the “CSP induced, K48 HN resonance” value (Molar ratio 10O5:GABARAPL2 4) was 0.2294 and the “CSP induced, L50 HN resonance” value (Molar ratio 10O5:GABARAPL2 4) was 0.1327. The “CSP induced, R28 HN resonance” value (Molar ratio 10O5:GABARAPL2 4) was 0.07911, the “CSP induced, V16 HN resonance” value (Molar ratio 10O5:GABARAPL2 4) was 0.07334 and the “CSP induced, V31 HN resonance” value (Molar ratio 10O5:GABARAPL2 4) was 0.1464. For the same molecule, the “CSP induced, Y109 HN resonance” value (Molar ratio 10O5:GABARAPL2 4) was 0.06741, the CSP (residue A19) was 0.086 ppm and the “3D Mapping code” value (residue A19) was “Orange”. The CSP (residue A23) was 0.058 ppm, the “3D Mapping code” value (residue A23) was “Orange” and the CSP (residue A58) was 0.016 ppm. The CSP (residue A75) was 0.00255 ppm, the CSP (residue A108) was 0.017 ppm and the CSP (residue C15) was 0.019 ppm. For the same molecule, the CSP (residue D8) was 0.007 ppm, the CSP (residue D27) was 0.029 ppm and the “3D Mapping code” value (residue D27) was “Light green”. For the same molecule, the CSP (residue D43) was 0.009 ppm, the CSP (residue D45) was 0.030 ppm and the “3D Mapping code” value (residue D45) was “Light green”. For the same molecule, the CSP (residue D54) was 0.029 ppm, the “3D Mapping code” value (residue D54) was “Light green” and the CSP (residue D81) was 0.022 ppm. For the same molecule, the CSP (residue D100) was 0.018 ppm, the CSP (residue D102) was 0.033 ppm and the “3D Mapping code” value (residue D102) was “Light green”. For the same molecule, the CSP (residue E7) was 0.029 ppm, the “3D Mapping code” value (residue E7) was “Light green” and the CSP (residue E12) was 0.015 ppm. For the same molecule, the CSP (residue E17) was 0.081 ppm, the “3D Mapping code” value (residue E17) was “Orange” and the CSP (residue E34) was 0.060 ppm. The “3D Mapping code” value (residue E34) was “Orange”, the CSP (residue E73) was 0.00458 ppm and the CSP (residue E96) was 0.019 ppm. It also gave a CSP (residue E98) of 0.025 ppm, a CSP (residue E101) of 0.007 ppm and a CSP (residue E112) of 0.00563 ppm. It also gave a CSP (residue F60) of 0.00542 ppm, a CSP (residue F77) of 0.006 ppm and a CSP (residue F79) of 0.007 ppm. For the same molecule, the CSP (residue F104) was 0.059 ppm, the “3D Mapping code” value (residue F104) was “Orange” and the CSP (residue F115) was 0.012 ppm. The CSP (residue G38) was 0.040 ppm, the “3D Mapping code” value (residue G38) was “Light green” and the CSP (residue G103) was 0.019 ppm. For the same molecule, the CSP (residue G111) was 0.010 ppm, the CSP (residue G116) was 0.007 ppm and the CSP (residue H9) was 0.008 ppm. The CSP (residue H13) was 0.031 ppm, the “3D Mapping code” value (residue H13) was “Light green” and the CSP (residue I21) was 0.054 ppm. For the same molecule, the “3D Mapping code” value (residue I21) was “Orange”, the CSP (residue I32) was 0.057 ppm and the “3D Mapping code” value (residue I32) was “Blue”. For the same molecule, the CSP (residue I41) was 0.00428 ppm, the CSP (residue I44) was 0.029 ppm and the “3D Mapping code” value (residue I44) was “Light green”. For the same molecule, the CSP (residue I55) was 0.026 ppm, the “3D Mapping code” value (residue I55) was “Light green” and the CSP (residue I63) was 0.014 ppm. For the same molecule, the CSP (residue I64) was 0.021 ppm, the CSP (residue I68) was 0.021 ppm and the CSP (residue I76) was 0.004 ppm. For the same molecule, the CSP (residue K2) was 0.017 ppm, the CSP (residue K6) was 0.023 ppm and the CSP (residue K20) was 0.058 ppm. For the same molecule, the “3D Mapping code” value (residue K20) was “Orange”, the CSP (residue K24) was 0.015 ppm and the CSP (residue K35) was 0.014 ppm. The CSP (residue K46, estimated) was 0.050 ppm, the “3D Mapping code” value (residue K46) was “Blue” and the CSP (residue K48) was 0.168 ppm.
